The subject of one data set is Bacillus cereus. The data set is described as follows: Antibacterial resazurin microplate assay (REMA), anti-B. cereus. Format: cell-based. The following applies: inactive = at the final concentration of 50 μg/mL. Background: Alamar Blue is a resazurin reagent that responds to reducing activity.
Data set [1] relates to Mycobacterium tuberculosis strain H37Ra. Description: microbe, parasite or virus in culture. The format is cell-based. The following applies: for MIC: Mycobacterium tuberculosis, H37RA, read-out: Anti-M. tuberculosis MIC.
Data set [2] can be described thus: in vitro. The following applies: African green monkey.
In the next data set the test system is Setosphaeria turcica. On the set-up: method as in PMID 28862674. The following applies: plant pathogen; cited from earlier work.
In the next data set the test system is Syphacia oblevata. On the set-up: method as in PMID 5459626. The following applies: cited from earlier work.
The test system of a further data set is Plasmodium berghei. On the set-up: method as in PMID 5459626. The following applies: cited from earlier work.
Data set [3] deals with HPV-18-positive HeLa cells. On the set-up: method as in PMID 28862674. The following applies: cervical cancer cell line; cited from earlier work.
Data set [4] relates to Plasmodium falciparum (K-1, multi-drug resistant strain). Description: microbe, parasite or virus in culture. Format: cell-based. The following applies: for Anti-P. falciparum IC50: K-1 multi-drug resistant strain, inactive = at the final concentration of 50 μg/mL; for IC50: Plasmodium falciparum, read-out: Anti-P. falciparum IC50.
On the set-up of data set [5]: method as in PMID 15844966. The following applies: final concentration of up to 200 μg/mL; cited from earlier work.
The test system of data set [6] is Vero cells (African green monkey kidney fibroblasts, ATCC CCL-81). The following applies: inactive = at the final concentration of 50 μg/mL.
For data set [7], the system named is KB (oral human epidermoid carcinoma, ATCC CCL-17). The following applies: KB cells; inactive = at the final concentration of 50 μg/mL.
The subject of data set [8] is tested microorganisms used in this study. Description: Antimicrobial activity test, tested microorganisms of this study. The format is cell-based. The following applies: at a concentration of 50 μg/mL.
The nature of data set [9]: in vitro. The following applies: human.
In data set [10] the test system is MCF-7 (human breast cancer, ATCC HTC-22). The following applies: MCF-7 cells; inactive = at the final concentration of 50 μg/mL.
The target of a further data set is Hsp90 ATPase. On the set-up: method as in PMID 23124337. The following applies: isolated from Streptomyces hygroscopicus JCM4427; read-out: Hsp90 ATPase inhibition IC50; cited from earlier work.
A further data set has as its system oncostatin M signaling. The following applies: cell-based; cited from earlier work.
Data set [11] relates to human histiocytic lymphoma U-937 cell line. On the set-up: method as in PMID 11213294. The following applies: cited from earlier work.
Data set [12] relates to NCI-H187 (human small-cell lung cancer, ATCC CRL-5804). The following applies: NCI-H187 cells; inactive = at the final concentration of 50 μg/mL.
Another data set has as its system PRMI-7951. The arrangement: method as in PMID 21376551. The following applies: cited from earlier work.
Another data set deals with V. alginolyticus. On the set-up: method as in PMID 21376551. The following applies: cited from earlier work.
The next data set relates to SK-Mel-5. The arrangement: method as in PMID 21376551. The following applies: cited from earlier work.
The next data set relates to E. faecium. The arrangement: method as in PMID 21376551. The following applies: cited from earlier work.
The next data set relates to C. albicans. The arrangement: method as in PMID 21376551. The following applies: cited from earlier work.
The next data set deals with T-47D. On the set-up: method as in PMID 21376551. The following applies: cited from earlier work.
For a further data set, the system named is B. subtilis. The arrangement: method as in PMID 21376551. The following applies: cited from earlier work.
For another data set, the system named is SK-Mel-28. The arrangement: method as in PMID 21376551. The following applies: cited from earlier work.
A short description of data set [13]: in vitro. The following applies: human. This is another data set of the same source.

In brackets after ≈: the same amount, converted by molar mass.

Broadly, the IC50 is the concentration that gives 50% inhibition.

As for `CN[C@H](CC(C)C)C(=O)N[C@H]1C(=O)N[C@@H](CC(N)=O)C(=O)N[C@H]2C(=O)N[C@H]3C(=O)N[C@H](C(=O)N[C@H](C(=O)O)c4cc(O)cc(O)c4-c4cc3ccc4O)[C@H](O)c3ccc(c(Cl)c3)Oc3cc2cc(c3O[C@@H]2O[C@H](CO)[C@@H](O)[C@H](O)[C@H]2O[C@H]2C[C@](C)(N)[C@H](O)[C@H](C)O2)Oc2ccc(cc2Cl)[C@H]1O` [Vancomycin, reference compound], in the data set on Bacillus cereus (Bacillus cereus), the MIC amounted to 2 µg/mL (≈ 1.38 µM).
Take `NNC(=O)c1ccncc1` [Isoniazid, reference compound]: in [1], the MIC was 0.047 µg/mL (≈ 0.343 µM).
`Cc1c2ccncc2c(C)c2c1[nH]c1ccccc12` [Ellipticine, reference compound] returned an IC50 in the data set “in vitro [2]” of 1.58 µg/mL (≈ 6.41 µM).
In the case of `CC1COc2c(N3CCN(C)CC3)c(F)cc3c(=O)c(C(=O)O)cn1c23` (stereo not drawn) [Ofloxacin, reference compound], the MIC in data set [1] amounted to 0.391 µg/mL (≈ 1.08 µM).
Regarding `COC1=C2C[C@@H](C)C[C@H](OC)[C@H](O)[C@@H](C)/C=C(\C)[C@H](OC(N)=O)[C@@H](OC)/C=C\C=C(/C)C(=O)NC(=CC1=O)C2=O` [(1), geldanamycin], in the data set on Setosphaeria turcica, the “antifungal activity against Setosphaeria turcica” value is reported as “antifungal activity”. Besides, the “in vivo anti-parasitic activity against Syphacia oblevata” value with Syphacia oblevata is listed as “in vivo anti-parasitic activity”. The “in vivo anti-parasitic activity against Plasmodium berghei” value in the data set with Plasmodium berghei is given as “not against Plasmodium berghei”. For the same molecule, the IC50 in “in vitro [2]” is 0.094 µg/mL (≈ 0.168 µM). Also, in data set [3], the “growth of HPV-18-positive HeLa cells” value is listed as “inhibited the growth”. Besides, in the data set on Bacillus cereus, the “Anti-B. cereus MIC” value is “inactive”. Besides, the “Anti-M. tuberculosis MIC” value in data set [1] was “inactive”. In data set [4], the “Anti-P. falciparum IC50” value was “inactive”.
Consider `O=C1CCC(=O)NCCCCCN(O)C(=O)CCC(=O)NCCCCCN(O)C(=O)CCC(=O)NCCCCCN1` [(6), dehydroxynocardamine], for which the antimicrobial activity entry in data set [5] is “no antimicrobial activity”. Besides, the “Cytotoxicity IC50 Vero” value in data set [6] is “inactive”. In addition, in [7], the “Cytotoxicity IC50 KB” value is “inactive”. The “antimicrobial activity against tested microorganisms” value in data set [8] is “inactive”. In the data set with Bacillus cereus, the “Anti-B. cereus MIC” value is “inactive”. The same molecule gave an IC50 in “in vitro [9]” of 14 µg/mL (≈ 23.9 µM). In addition, in data set [1], the “Anti-M. tuberculosis MIC” value is “inactive”. Besides, the “Cytotoxicity IC50 MCF-7” value in [10] was “inactive”. In addition, in data set [4], the “Anti-P. falciparum IC50” value is “inactive”.
Take `COc1c(O)cc2cc1C[C@@H](C)C[C@H](OC)[C@H](O)[C@@H](C)/C=C(\C)[C@H](OC(N)=O)[C@@H](OC)CC/C=C(\C)C(=O)N2` [(3), reblastatin]: the IC50 at Hsp90 ATPase is 320 nM; in “in vitro [2]” it was 7.75 µg/mL (≈ 14.1 µM); in the data set on oncostatin M signaling it was 160 nM. Also, the “Anti-B. cereus MIC” value with Bacillus cereus was “inactive”. For the same molecule, the “Anti-M. tuberculosis MIC” value in data set [1] was “inactive”. Also, the “inhibition of proliferation of U-937 IC50” value in [11] is 0.43 µg/mL. In addition, the “Anti-P. falciparum IC50” value in data set [4] is “inactive”.
Take `O=C1CCC(=O)N(O)CCCCCNC(=O)CCC(=O)N(O)CCCCCNC(=O)CCC(=O)N(O)CCCCCN1` [(5), nocardamine]: the antimicrobial activity result in data set [5] is reported as “no antimicrobial activity”. Moreover, in data set [12], the “Cytotoxicity IC50 NCI-H187” value was “inactive”. Besides, in [7], the “Cytotoxicity IC50 KB” value is “inactive”. In the data set with PRMI-7951, the “cell proliferation of PRMI-7951” value is listed as “did not inhibit cell proliferation” and the “colony formation of PRMI-7951” value is reported as “did inhibit their colony formation”. In addition, the “antimicrobial activity against V. alginolyticus” value with V. alginolyticus is given as “no activity”. For the same molecule, in the data set with SK-Mel-5, the “cell proliferation of SK-Mel-5” value is recorded as “did not inhibit cell proliferation” and the “colony formation of SK-Mel-5” value is “did inhibit their colony formation”. In [8], the “antimicrobial activity against tested microorganisms” value is “inactive”. The molecule further returned an IC50 in the data set “in vitro [2]” of 16.6 µg/mL (≈ 27.6 µM). For the same molecule, in the data set on E. faecium, the “antimicrobial activity against E. faecium” value is “weak antimicrobial activity”. For the same molecule, the “Anti-B. cereus MIC” value in the data set with Bacillus cereus was “inactive”. The “antimicrobial activity against C. albicans” value with C. albicans is recorded as “no activity”. In addition, in the data set with T-47D, the “cell proliferation of T-47D” value was “did not inhibit cell proliferation” and the “colony formation of T-47D” value is given as “did inhibit their colony formation”. In addition, in data set [1], the “Anti-M. tuberculosis MIC” value is “inactive”. In addition, the “antimicrobial activity against B. subtilis” value in the data set on B. subtilis is recorded as “weak antimicrobial activity”. The “Cytotoxicity IC50 MCF-7” value in [10] is “inactive”. Further, in the data set on SK-Mel-28, the “cell proliferation of SK-Mel-28” value is on record as “did not inhibit cell proliferation” and the “colony formation of SK-Mel-28” value is “did inhibit their colony formation”. For the same molecule, the “Anti-P. falciparum IC50” value in data set [4] is “inactive”.
`CC[C@@H](CO)NCCN[C@@H](CC)CO` [Ethambutol, reference compound]: the MIC in data set [1] worked out at 0.938 µg/mL (≈ 4.59 µM).
`CO[C@H]1/C=C/O[C@@]2(C)Oc3c(C)c(O)c4c(O)c(c(/C=N/N5CCN(C)CC5)c(O)c4c3C2=O)NC(=O)/C(C)=C\C=C\[C@H](C)[C@H](O)[C@@H](C)[C@@H](O)[C@@H](C)[C@H](OC(C)=O)[C@@H]1C` [Rifampicin, reference compound]: in data set [1], the MIC was found to be 0.013 µg/mL (≈ 0.0158 µM).
Turning to `CO[C@H]1C[C@H](C)Cc2cc(O)cc(c2)NC(=O)/C(C)=C/CC[C@H](OC)[C@@H](OC(N)=O)/C(C)=C/[C@H](C)[C@H]1O` [(4), 17-demethoxyreblastatin], in data set [7], the “Cytotoxicity IC50 KB” value was “inactive”. The figures for the IC50 at Hsp90 ATPase, in “in vitro [2]” and in “in vitro [9]” were 1820 nM, 13.5 µg/mL (≈ 26 µM) and 1.33 µg/mL (≈ 2.56 µM), respectively. Besides, the “Anti-B. cereus MIC” value with Bacillus cereus is “inactive”. Also, the “Anti-M. tuberculosis MIC” value in data set [1] was “inactive”. In addition, the “Cytotoxicity IC50 MCF-7” value in data set [10] was “inactive”. For the same molecule, the “Anti-P. falciparum IC50” value in data set [4] is “inactive”.
For `OC(c1cc(C(F)(F)F)nc2c(C(F)(F)F)cccc12)C1CCCCN1` (stereo not drawn) [Mefloquine, reference compound], the IC50 in data set [4] worked out at 0.024 µg/mL (≈ 0.0634 µM).
The same measure, in the same setting: for `C[C@H]1[C@@H](O)O[C@@H]2O[C@@]3(C)CC[C@H]4[C@H](C)CC[C@@H]1[C@@]24OO3` [Dihydroartemisinine, reference compound] the value was 0.000702 µg/mL (≈ 0.00247 µM).
Regarding `CO[C@H]1/C=C\C=C(/C)C(=O)NC2=CC(=O)C(O)=C(C[C@@H](C)C[C@H](OC)[C@H](O)[C@@H](C)/C=C(\C)[C@@H]1OC(N)=O)C2=O` [(2), 17-O-demethylgeldanamycin], in data set [7], the “Cytotoxicity IC50 KB” value was “inactive”. Besides, the IC50 in the data set “in vitro [2]” is 6.43 µg/mL (≈ 11.8 µM); in the data set “in vitro [9]” it was 4.25 µg/mL (≈ 7.78 µM). In addition, the “Anti-B. cereus MIC” value in the data set on Bacillus cereus was “inactive”. In addition, in data set [1], the “Anti-M. tuberculosis MIC” value is “inactive”. Moreover, in data set [10], the “Cytotoxicity IC50 MCF-7” value is “inactive”. For the same molecule, the “Anti-P. falciparum IC50” value in [4] was “inactive”.
Regarding `CC/C(=C(\c1ccccc1)c1ccc(OCCN(C)C)cc1)c1ccccc1` [Tamoxifen, reference compound], the IC50 in “in vitro [13]” amounted to 6.96 µg/mL (≈ 18.7 µM).

The values are drawn from publication PMC10525797, “Streptomyces rugosispiralis sp. nov., a Novel Actinobacterium Isolated from Peat Swamp Forest Soil That Produces Ansamycin Derivatives and Nocardamines” (Antibiotics, 2023).
